Results from US6551615B1, “Dexibuprofen-containing soft gelatin capsules and process for preparing the same” (M/s. Strides Arcolab Limited, priority 2001, dated 2003).

Legend:
[1] = cited from earlier work
[2] = Compatibility of dexibuprofen with glycerin plasticizer; format: physicochemical; settings: in some instances
Source text: In general, gelatin capsule formulations for soft gelatin capsules comprise raw gelatin and one or more plasticizers added to adjust the hardness of the capsule. Typical plasticizers include glycerin, sorbitol and Anidrisorb 85/70. A preferred plasticizer is Anidrisorb 85/70, an aqueous solution of D-sorbitol and sorbitans. […] One preferred gelatin formulation for the soft gelatin capsules used in accordance with preferred embodiments includes gelatin in the range of about 40% to 48% and a plasticizer ranging in amount from about 20% to 35%. Another preferred plasticizer is sorbitol BP, a non-crystallizing sorbitol solution. When either a 70%, non-crystallizing sorbitol solution or Anidrisorb 85/70 are used alone, the amount of plasticizer used preferaby ranges from about 25% to 35%. Capsule formulations can also include other suitable additives, for example coloring agents, which impart specific characteristics such as the look and feel of the capsule. FD&C dyes and D & C dyes are examples of pharmaceutically acceptable coloring agents that may be used in preferred embodiments.

## CC(C)Cc1ccc([C@H](C)C(=O)O)cc1 [Dexibuprofen, (S)-(+)-2-(4-isobutylphenyl)propionic acid]
[1]; acetone
  Solubility in acetone: freely soluble
[1]; aqueous solutions of alkali hydroxides and carbonates
  Solubility in aqueous solutions of alkali hydroxides and carbonates: soluble
[1]; methanol
  Solubility in methanol: freely soluble
[1]; methylene chloride
  Solubility in methylene chloride: freely soluble
[1]; most organic solvents
  Solubility in most organic solvents: readily soluble
[1]; water
  Solubility in water: practically insoluble
[2]
  Reaction with glycerin (plasticizer of the capsule shell): forming unwanted glycerol esters of dexibuprofen
